Assay results reported in patent US20260083865A1, “PROSTATE SPECIFIC MEMBRANE ANTIGEN (PSMA) LIGANDS AND USE THEREOF” (priority 2022, published 2026).
Read-outs that look alike come from different tables or passages of the source. Numbered stars: 1 amine (or outer) side, 2 acyl side, 3 side chain; on linkers, the order of the positions; unused ones are H or OH. Bridge positions count the residues as written; N and C are the ends. Square brackets hold non-standard residues; d marks the D form. Side chains are listed from the residue outwards. Peptide text beside a SMILES is read from it. * marks the point of attachment. TtdsdLys(DOTA)NH2 = NC(=O)[C@@H](CCCCNC(=O)CN1CCN(CC(=O)O)CCN(CC(=O)O)CCN(CC(=O)O)CC1)NC(=O)CCC(=O)NCCCOCCOCCOCCCN*; X2 = O=C(O)CN1CCN(CC(=O)O)CCN([C@H](CCC(=O)*)C(=O)O)CCN(CC(=O)O)CC1; DOTA = O=C(O)CN1CCN(CC(=O)O)CCN(CC(=O)*)CCN(CC(=O)O)CC1; Phe(3-Cl) = N[C@@H](Cc1cccc(Cl)c1)C(=O)O; Phe(4-Cl) = N[C@@H](Cc1ccc(Cl)cc1)C(=O)O; Ethylenediamine = C(CN[*:2])N[*:1]; X1 = O=C(CC1CCN([*:1])CC1)[*:2]; Aad = N[C@@H](CCCC(=O)O)C(=O)O; Cit = NC(=O)NCCC[C@H](N)C(=O)O; Tle = CC(C)(C)[C@H](N)C(=O)O; Hexanoyl = CCCCCC(=O)*; AEEA = NCCOCCOCC(=O)O; Aib = CC(C)(N)C(=O)O

Experiments:
[1] = target: T1, PSMA-expressing C4-2 cells (Homo sapiens, UniProt Q04609); test: FACS binding assay (competition with 50 nM PSM-0183); settings: read-out: pIC50 [C4-2] CAT (converted)
T1 construct: PSMA-expressing C4-2 cells (ATCC, Cat. No. CRL-3314) were cultured in RPMI-1640; host or cells: C4-2 cells
Outline: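 C4-2 cells were incubated 1 h at 4 °C with 50 nM AF488-labelled peptide PSM-0183 plus increasing test compound concentrations, then washed twice in ice-cold buffer. Median fluorescence in the AF488 channel was read by flow cytometry. IC50/pIC50 was derived by 4PL fitting of MFI versus concentration.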

[2] = target: T2, Fc-fusion protein of human PSMA (hPSMA-Fc) (Homo sapiens, UniProt Q04609); test: Surface plasmon resonance assay (Biacore T200, single cycle kinetic); format: binding; settings: hPSMA-Fc, 25° C., read-out: pKD CAT (converted)
T2 construct: purchased Acro Biosystems PSA-H5264
Outline: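 hPSMA-Fc was captured (~1000 RU) on an Fc-binding-peptide CM5 chip, and compounds were run in single cycle kinetic mode at 25° C in HBST with 0.1% DMSO. Double-blank-corrected sensorgrams were fitted to a 1:1 Langmuir model to give KD, reported as pKD.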

PC3-PIP tumor model = tested on: PC3-PIP tumor model; design: species or system mice; settings: mouse, in vivo
From the text: Radioactively labeled compounds can be detected by imaging methods such as SPECT and PET. Furthermore, the data acquired by such techniques can be confirmed by direct measurement of radioactivity contained in the individual organs prepared from an animal injected with a radioactively labeled compound of the disclosure. Thus, the biodistribution (the measurement of radioactivity in individual organs) of a radioactively labeled compound can be determined and analyzed. […] All animal experiments were conducted in compliance with the German animal protection laws. Male swiss or NMRI nude mice (6-8 weeks old, Janvier Labs, France) were inoculated with 5×10^6 PC3-PIP cells in the right shoulder. For selected compounds an additional model was used, here male NMRI nude mice (6-8 weeks old, Janvier Labs, France) were inoculated with 5×10^6 or/1×10^7 C4-2 cells in the right shoulder. When tumors reached an appropriate size, the mice received ˜30 MBq ^111In-labeled compounds of the disclosure (diluted to 100 μL with PBS) administered intravenously via the tail vein. Images were obtained on a NanoSPECT/computed tomography system (Mediso Medical Imaging Systems, Budapest, Hungary) using exemplarily the following acquisition and reconstruction parameters (Table 10). [table] Imaging data were saved as DICOM files and analysed using VivoQuant™ software (Invicro, Boston, USA). In brief, regions of interest (ROIs) were drawn based on computed tomography images for the relevant organs and tissue regions such as heart (estimate of blood pool, bps), kidney, and tumor. The resulting numeric data expressed as a percentage of injected dose per gram of tissue (% ID/g) are presented in FIGS. 3(a)-3(ii) for the PC3-PIP model and FIGS. 4(a)-4(r) for the C4-2 model. Bars show mean % ID/g values of two to three animals per time point. Error bars indicate the value range (minimum and maximum values).

[3] = pIC50 category of FACS binding, C4-2 cells
[4] = pKD category for PSMA SPR activity assay
[5] = FACS binding, C4-2 cells, competition with 50 nM PSM-0183, category
[6] = SPR, single cycle kinetic, category
[7] = FACS binding, PSMA-expressing C4-2 cells, pIC50 category

T1 sequence (Q04609 whole entry): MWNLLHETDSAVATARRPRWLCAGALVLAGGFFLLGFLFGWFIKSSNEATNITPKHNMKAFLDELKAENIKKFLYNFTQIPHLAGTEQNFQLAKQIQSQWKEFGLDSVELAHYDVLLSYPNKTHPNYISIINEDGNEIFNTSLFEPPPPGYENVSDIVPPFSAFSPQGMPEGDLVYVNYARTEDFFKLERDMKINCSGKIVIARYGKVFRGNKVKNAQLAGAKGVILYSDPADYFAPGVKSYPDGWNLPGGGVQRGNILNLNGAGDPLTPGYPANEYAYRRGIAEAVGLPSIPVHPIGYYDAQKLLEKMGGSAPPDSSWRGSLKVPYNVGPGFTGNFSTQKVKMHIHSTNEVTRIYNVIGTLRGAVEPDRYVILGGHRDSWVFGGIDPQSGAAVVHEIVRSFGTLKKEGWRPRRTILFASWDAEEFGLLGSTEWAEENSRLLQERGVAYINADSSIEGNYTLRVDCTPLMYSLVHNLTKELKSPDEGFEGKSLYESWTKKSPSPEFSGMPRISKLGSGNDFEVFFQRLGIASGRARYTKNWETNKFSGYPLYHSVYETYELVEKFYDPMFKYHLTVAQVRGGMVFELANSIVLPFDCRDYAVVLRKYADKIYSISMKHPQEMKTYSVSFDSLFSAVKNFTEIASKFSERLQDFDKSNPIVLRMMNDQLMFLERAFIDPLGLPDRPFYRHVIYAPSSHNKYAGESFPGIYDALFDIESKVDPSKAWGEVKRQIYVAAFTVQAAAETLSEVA
T2 sequence (Q04609 44-750 limits assumed): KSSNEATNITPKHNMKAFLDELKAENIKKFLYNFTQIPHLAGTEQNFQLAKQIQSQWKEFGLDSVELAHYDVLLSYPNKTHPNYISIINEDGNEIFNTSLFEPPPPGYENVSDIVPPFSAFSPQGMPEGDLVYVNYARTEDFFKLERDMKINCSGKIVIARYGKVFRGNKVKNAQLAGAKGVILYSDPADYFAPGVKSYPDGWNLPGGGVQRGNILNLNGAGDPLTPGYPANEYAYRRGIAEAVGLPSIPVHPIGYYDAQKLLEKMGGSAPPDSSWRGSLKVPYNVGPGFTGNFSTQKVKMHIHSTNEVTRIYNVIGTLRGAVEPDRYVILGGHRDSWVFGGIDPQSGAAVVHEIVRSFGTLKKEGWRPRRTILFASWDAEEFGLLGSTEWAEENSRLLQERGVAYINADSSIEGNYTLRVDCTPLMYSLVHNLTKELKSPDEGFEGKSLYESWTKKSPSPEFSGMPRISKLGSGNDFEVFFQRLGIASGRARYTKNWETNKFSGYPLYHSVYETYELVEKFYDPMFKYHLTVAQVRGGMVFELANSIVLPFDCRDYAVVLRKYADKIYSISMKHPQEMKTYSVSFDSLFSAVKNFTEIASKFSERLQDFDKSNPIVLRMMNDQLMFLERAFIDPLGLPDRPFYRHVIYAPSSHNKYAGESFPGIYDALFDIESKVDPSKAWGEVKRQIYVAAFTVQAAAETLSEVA

| IC50 [1, 3] [nM] | Kd [2, 4] [nM] | AUC ratio [T/K] (PC3-PIP tumor model) | Tumor AUC (PC3-PIP tumor model) [% ID/g*h] | IC50 [1, 5] [nM] | Kd [2, 6] [nM] | IC50 [1, 7] [nM] | Kd ([2]; PSMA SPR assay, pKD category) [nM] | SMILES |
| --- | --- | --- | --- | --- | --- | --- | --- | --- |
| < 200 | < 12.6 | 0.53 | 230 |  |  |  |  | CCCCCC(=O)N[C@H](C(=O)NC(C)(C)C(=O)N[C@@H](Cc1ccccc1)C(=O)N[C@H]1CSSC[C@@H](C(=O)N[C@H](C(=O)N[C@H](C(=O)N[C@@H](CC(=O)O)C(=O)NCCCOCCOCCOCCCNC(=O)CCC(=O)N[C@H](CCCCNC(=O)CN2CCN(CC(=O)O)CCN(CC(=O)O)CCN(CC(=O)O)CC2)C(N)=O)[C@@H](C)O)C(C)(C)C)NC(=O)[C@H](CC(N)=O)NC(=O)C(C)(C)NC(=O)[C@H](CCCNC(=N)N)NC(=O)[C@H](CCCCN)NC1=O)[C@@H](C)O [PSM-0425, Hex-Thr-Aib-Phe-[Cys-Lys-Arg-Aib-Asn-Cys]-Tle-Thr-Asp-Ttds-lys(DOTA)-NH2] (Hexanoyl-T[Aib]FCKR[Aib]NC[Tle]TD-{TtdsdLys(DOTA)NH2}; disulfide 4-9) |
|  |  | 0.54 | 300 | < 200 | < 12.6 |  |  | C[C@@H](O)[C@H](NC(=O)CC1CCN(C(=O)CN2CCN(CC(=O)O)CCN(CC(=O)O)CCN(CC(=O)O)CC2)CC1)C(=O)NC(C)(C)C(=O)N[C@@H](Cc1ccccc1)C(=O)N[C@H]1CSSC[C@@H](C(=O)N[C@H](C(=O)NCCN)C(C)(C)C)NC(=O)[C@H](CC(N)=O)NC(=O)C(C)(C)NC(=O)[C@H](CCCNC(=N)N)NC(=O)[C@H](CCCCN)NC1=O [PSM-0241, DOTA-Cmp-Thr-Aib-Phe-[Cys-Lys-Arg-Aib-Asn-Cys]-Tle-en] ({DOTA}-[X1]T[Aib]FCKR[Aib]NC[Tle]-Ethylenediamine; disulfide 5-10) |
| < 200 | < 12.6 | 1.6 | 140 |  |  |  |  | C[C@@H](O)[C@H](NC(=O)[C@@H](NC(=O)[C@@H]1CSSC[C@H](NC(=O)[C@H](Cc2ccc(Cl)cc2)NC(=O)C(C)(C)NC(=O)[C@@H](NC(=O)CC2CCN(C(=O)CN3CCN(CC(=O)O)CCN(CC(=O)O)CCN(CC(=O)O)CC3)CC2)[C@@H](C)O)C(=O)N[C@@H](CCCCN)C(=O)N[C@@H](CCCNC(N)=O)C(=O)NC(C)(C)C(=O)N[C@@H](CC(N)=O)C(=O)N1)C(C)(C)C)C(N)=O [PSM-0365, DOTA-Cmp-Thr-Aib-Pcf-[Cys-Lys-Cit-Aib-Asn-Cys]-Tle-Thr-NH2] ({DOTA}-[X1]T[Aib][Phe(4-Cl)]CK[Cit][Aib]NC[Tle]T-NH2; disulfide 5-10) |
|  |  | 0.45 | 83 |  |  | < 200 | < 12.6 | CC(=O)N[C@H](C(=O)NC(C)(C)C(=O)N[C@@H](Cc1cccc(Cl)c1)C(=O)N[C@H]1CSSC[C@@H](C(=O)N[C@H](C(=O)N[C@H](C(N)=O)[C@@H](C)O)C(C)(C)C)NC(=O)[C@H](CC(N)=O)NC(=O)[C@H](CCCCNC(=O)COCCOCCNC(=O)CC[C@H](C(=O)O)N2CCN(CC(=O)O)CCN(CC(=O)O)CCN(CC(=O)O)CC2)NC(=O)[C@H](CCCNC(=N)N)NC(=O)[C@H](CCCCN)NC1=O)[C@@H](C)O [PSM-0301, Ac-Thr-Aib-Mcf-[Cys-Lys-Arg-Lys (DOTAGA-020c)-Asn-Cys]-Tle-Thr-NH2] (Ac-T[Aib][Phe(3-Cl)]CKRK([AEEA-X2])NC[Tle]T-NH2; disulfide 4-9) |
|  |  | 0.87 | 150 |  |  | < 200 | < 12.6 | CC(=O)N[C@H](C(=O)NC(C)(C)C(=O)N[C@@H](Cc1ccc(Cl)cc1)C(=O)N[C@H]1CSSC[C@@H](C(=O)N[C@H](C(=O)NCCNC(=O)CN2CCN(CC(=O)O)CCN(CC(=O)O)CCN(CC(=O)O)CC2)C(C)(C)C)NC(=O)[C@H](CC(N)=O)NC(=O)C(C)(C)NC(=O)[C@H](CCCNC(=N)N)NC(=O)[C@H](CCCCN)NC1=O)[C@@H](C)O [PSM-0269, Ac-Thr-Aib-Pcf-[Cys-Lys-Arg-Aib-Asn-Cys]-Tle-en-DOTA] (Ac-T[Aib][Phe(4-Cl)]CKR[Aib]NC[Tle]-{Ethylenediamine-DOTA}; disulfide 4-9) |
| < 200 | < 12.6 | 0.30 | 220 |  |  |  |  | C[C@@H](O)[C@H](NC(=O)CC1CCN(C(=O)CN2CCN(CC(=O)O)CCN(CC(=O)O)CCN(CC(=O)O)CC2)CC1)C(=O)NC(C)(C)C(=O)N[C@@H](Cc1ccc(Cl)cc1)C(=O)N[C@H]1CSSC[C@@H](C(=O)N[C@H](C(=O)NCCN)C(C)(C)C)NC(=O)[C@H](CC(N)=O)NC(=O)C(C)(C)NC(=O)[C@H](CCCNC(=N)N)NC(=O)[C@H](CCCCN)NC1=O [PSM-0384, DOTA-Cmp-Thr-Aib-Pcf-[Cys-Lys-Arg-Aib-Asn-Cys]-Tle-en] ({DOTA}-[X1]T[Aib][Phe(4-Cl)]CKR[Aib]NC[Tle]-Ethylenediamine; disulfide 5-10) |
| < 200 | < 12.6 | 1.2 | 170 |  |  |  |  | CC(=O)N[C@H](C(=O)NC(C)(C)C(=O)N[C@@H](Cc1ccccc1)C(=O)N[C@H]1CSSC[C@@H](C(=O)N[C@H](C(=O)N[C@H](C(=O)N2CCC(CC(=O)N[C@H](CCCCNC(=O)CN3CCN(CC(=O)O)CCN(CC(=O)O)CCN(CC(=O)O)CC3)C(N)=O)CC2)[C@@H](C)O)C(C)(C)C)NC(=O)[C@H](CC(N)=O)NC(=O)C(C)(C)NC(=O)[C@H](CCCNC(=N)N)NC(=O)[C@H](CCCCN)NC1=O)[C@@H](C)O [PSM-0428, Ac-Thr-Aib-Phe-[Cys-Lys-Arg-Aib-Asn-Cys]-Tle-Thr-Cmp-lys(DOTA)-NH2] (Ac-T[Aib]FCKR[Aib]NC[Tle]T[X1][dK](DOTA)-NH2; disulfide 4-9) |
| < 200 | < 12.6 | 1.6 | 120 |  |  |  |  | C[C@@H](O)[C@H](NC(=O)[C@@H](NC(=O)[C@@H]1CSSC[C@H](NC(=O)[C@H](Cc2ccc(Cl)cc2)NC(=O)C(C)(C)NC(=O)[C@@H](NC(=O)CC2CCN(C(=O)CN3CCN(CC(=O)O)CCN(CC(=O)O)CCN(CC(=O)O)CC3)CC2)[C@@H](C)O)C(=O)N[C@@H](CCCCN)C(=O)N[C@@H](CCCC(N)=O)C(=O)NC(C)(C)C(=O)N[C@@H](CC(N)=O)C(=O)N1)C(C)(C)C)C(N)=O [PSM-0531, DOTA-Cmp-Thr-Aib-Pcf-[Cys-Lys-Hgn-Aib-Asn-Cys]-Tle-Thr-NH2] ({DOTA}-[X1]T[Aib][Phe(4-Cl)]CK[Aad](NH2)[Aib]NC[Tle]T-NH2; disulfide 5-10) |
|  |  | 0.33 | 170 | < 200 | < 12.6 |  |  | C[C@@H](O)[C@H](NC(=O)CN1CCN(CC(=O)O)CCN(CC(=O)O)CCN(CC(=O)O)CC1)C(=O)NC(C)(C)C(=O)N[C@@H](Cc1ccccc1)C(=O)N[C@H]1CSSC[C@@H](C(=O)N[C@H](C(=O)NCCN)C(C)(C)C)NC(=O)[C@H](CC(N)=O)NC(=O)C(C)(C)NC(=O)[C@H](CCCNC(=N)N)NC(=O)[C@H](CCCCN)NC1=O [PSM-0199, DOTA-Thr-Aib-Phe-[Cys-Lys-Arg-Aib-Asn-Cys]-Tle-en] ({DOTA}-T[Aib]FCKR[Aib]NC[Tle]-Ethylenediamine; disulfide 4-9) |
|  |  | 0.85 | 110 |  |  | < 200 | < 12.6 | C[C@@H](O)[C@H](NC(=O)CC1CCN(C(=O)CN2CCN(CC(=O)O)CCN(CC(=O)O)CCN(CC(=O)O)CC2)CC1)C(=O)NC(C)(C)C(=O)N[C@@H](Cc1ccccc1)C(=O)N[C@H]1CSSC[C@@H](C(=O)N[C@H](C(N)=O)C(C)(C)C)NC(=O)[C@H](CC(N)=O)NC(=O)C(C)(C)NC(=O)[C@H](CCCNC(=N)N)NC(=O)[C@H](CCCCN)NC1=O [PSM-0361, DOTA-Cmp-Thr-Aib-Phe-[Cys-Lys-Arg-Aib-Asn-Cys]-Tle-NH2] ({DOTA}-[X1]T[Aib]FCKR[Aib]NC[Tle]-NH2; disulfide 5-10) |
